From patent US5481003A, “Protein kinase C inhibitors” (Eli Lilly and Company, priority 1994, dated 1996)
Entries after “also recorded” stand apart in the source; their conditions may differ. Read-outs that look alike come from different tables or passages of the source. One block for each compound: values may come before it.

Key:
protein kinase C eta = protein kinase C eta (Homo sapiens, UniProt P24723); assay: PKC Enzyme Assay, eta isozyme; type: biochemical; details: 30 μM ATP, 30° C., 10 minutes
Experimental: (§1) PKC enzymes=alpha, beta 1, beta II, gamma, delta, epsilon, eta and zeta.
(§2) Assay components in a total volume of 250 μL are the following:
(§3) Vesicles consisting of 120 μg/mL phosphatidylserine (Avanti Polar Lipids)and sufficient diacylglycerol (Avanti Polar Lipids) to activate the enzyme to maximum activity in 20 mM HEPES buffer (Sigma, St. Louis, Mo.), pH 7.5, 940 μM calcium chloride (Sigma, St. Louis, Mo.) for assaying the alpha, beta I, beta II and gamma enzyme only, 1 mM EGTA for all the enzymes, 10 mM magnesium chloride (Sigma, St. Louis, Mo.) and 30 μM (gamma-32P) ATP (DuPont). For all the enzymes either histone type HL (Worthington) or myelin basic protein is used as substrate. The assay is started by addition of protein kinase C enzyme incubated at 30° C. for 10 minutes and stopped by adding 0.5 mL of cold trichloroacetic acid (Amresco) followed by 100 μL of 1 mg/mL bovine serum albumin (Sigma, St. Louis, Mo.). The precipitate is collected by vacuum filtration on glass fiber filters employing a TOMTEC™ filtration system and quantified by counting in a beta scintillation counter.

protein kinase C beta-1 = protein kinase C beta-1 (Homo sapiens, UniProt P05771); assay: PKC Enzyme Assay, beta-1 isozyme; type: biochemical; details: PKC beta-1; 30 μM ATP, 30° C., 10 minutes; read-out: IC50 β1
Experimental: as §1, §2, §3

protein kinase C delta = protein kinase C delta (Homo sapiens, UniProt Q05655); assay: PKC Enzyme Assay, delta isozyme; type: biochemical; details: 30 μM ATP, 30° C., 10 minutes
protein kinase C zeta = target: T1, protein kinase C zeta (Homo sapiens, UniProt Q05513); assay: PKC Enzyme Assay, zeta isozyme; type: biochemical; details: 30 μM ATP, 30° C., 10 minutes
T1 sequence (Q05513 1-592): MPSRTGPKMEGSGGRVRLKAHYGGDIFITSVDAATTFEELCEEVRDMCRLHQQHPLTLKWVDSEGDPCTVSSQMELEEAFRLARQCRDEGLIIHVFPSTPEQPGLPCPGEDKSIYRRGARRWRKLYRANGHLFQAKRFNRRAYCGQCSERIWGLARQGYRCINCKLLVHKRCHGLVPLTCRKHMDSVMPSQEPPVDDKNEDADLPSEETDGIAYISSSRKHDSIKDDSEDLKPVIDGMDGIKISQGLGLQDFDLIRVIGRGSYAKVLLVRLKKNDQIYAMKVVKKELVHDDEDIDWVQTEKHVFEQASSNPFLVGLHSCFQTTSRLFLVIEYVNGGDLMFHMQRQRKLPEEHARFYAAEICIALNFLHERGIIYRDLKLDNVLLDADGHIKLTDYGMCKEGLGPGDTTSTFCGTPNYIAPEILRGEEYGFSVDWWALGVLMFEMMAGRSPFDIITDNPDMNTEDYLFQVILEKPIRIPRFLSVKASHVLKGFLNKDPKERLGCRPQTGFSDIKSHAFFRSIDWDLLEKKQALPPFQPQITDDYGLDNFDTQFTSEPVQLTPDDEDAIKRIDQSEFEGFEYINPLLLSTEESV
Experimental: as §1, §2, §3

protein kinase C alpha = protein kinase C alpha (Homo sapiens, UniProt P17252); assay: PKC Enzyme Assay, alpha isozyme; type: biochemical; details: 30 μM ATP, 30° C., 10 minutes
Experimental: as §1, §2, §3

protein kinase C epsilon = target: T2, protein kinase C epsilon (Homo sapiens, UniProt Q02156); assay: PKC Enzyme Assay, epsilon isozyme; type: biochemical; details: 30 μM ATP, 30° C., 10 minutes
T2 sequence (Q02156 1-737): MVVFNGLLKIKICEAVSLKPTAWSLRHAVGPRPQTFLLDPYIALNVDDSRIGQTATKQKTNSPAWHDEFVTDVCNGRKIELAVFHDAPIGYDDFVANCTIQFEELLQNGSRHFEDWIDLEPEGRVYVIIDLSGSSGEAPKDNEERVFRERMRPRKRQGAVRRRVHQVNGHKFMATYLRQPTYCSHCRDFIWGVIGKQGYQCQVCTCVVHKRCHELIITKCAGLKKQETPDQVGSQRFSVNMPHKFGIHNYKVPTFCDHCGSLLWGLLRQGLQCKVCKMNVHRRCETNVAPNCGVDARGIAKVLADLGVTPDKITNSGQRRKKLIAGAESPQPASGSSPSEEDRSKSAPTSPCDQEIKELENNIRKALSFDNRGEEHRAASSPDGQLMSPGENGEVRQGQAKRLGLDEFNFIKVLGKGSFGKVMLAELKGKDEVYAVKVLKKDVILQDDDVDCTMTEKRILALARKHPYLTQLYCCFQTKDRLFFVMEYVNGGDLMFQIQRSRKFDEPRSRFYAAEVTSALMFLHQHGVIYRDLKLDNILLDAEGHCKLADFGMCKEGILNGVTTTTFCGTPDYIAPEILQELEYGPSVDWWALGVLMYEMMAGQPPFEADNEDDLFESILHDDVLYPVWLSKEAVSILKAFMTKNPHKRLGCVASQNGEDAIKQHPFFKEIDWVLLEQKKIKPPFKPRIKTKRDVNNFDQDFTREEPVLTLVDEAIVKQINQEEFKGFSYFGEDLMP
Experimental: as §1, §2, §3

protein kinase C gamma = protein kinase C gamma (Homo sapiens, UniProt P05129); assay: PKC Enzyme Assay, gamma isozyme; type: biochemical; details: 30 μM ATP, 30° C., 10 minutes
Experimental: as §1, §2, §3

protein kinase C beta-2 = protein kinase C beta-2 (Homo sapiens, UniProt P05771); assay: PKC Enzyme Assay, beta-2 isozyme; type: biochemical; details: PKC beta-2; 30 μM ATP, 30° C., 10 minutes; read-out: IC50 β2
Experimental: as §1, §2, §3

PKC isozymes = details: cited from earlier work

protein kinase C eta, sequence (P24723 whole entry): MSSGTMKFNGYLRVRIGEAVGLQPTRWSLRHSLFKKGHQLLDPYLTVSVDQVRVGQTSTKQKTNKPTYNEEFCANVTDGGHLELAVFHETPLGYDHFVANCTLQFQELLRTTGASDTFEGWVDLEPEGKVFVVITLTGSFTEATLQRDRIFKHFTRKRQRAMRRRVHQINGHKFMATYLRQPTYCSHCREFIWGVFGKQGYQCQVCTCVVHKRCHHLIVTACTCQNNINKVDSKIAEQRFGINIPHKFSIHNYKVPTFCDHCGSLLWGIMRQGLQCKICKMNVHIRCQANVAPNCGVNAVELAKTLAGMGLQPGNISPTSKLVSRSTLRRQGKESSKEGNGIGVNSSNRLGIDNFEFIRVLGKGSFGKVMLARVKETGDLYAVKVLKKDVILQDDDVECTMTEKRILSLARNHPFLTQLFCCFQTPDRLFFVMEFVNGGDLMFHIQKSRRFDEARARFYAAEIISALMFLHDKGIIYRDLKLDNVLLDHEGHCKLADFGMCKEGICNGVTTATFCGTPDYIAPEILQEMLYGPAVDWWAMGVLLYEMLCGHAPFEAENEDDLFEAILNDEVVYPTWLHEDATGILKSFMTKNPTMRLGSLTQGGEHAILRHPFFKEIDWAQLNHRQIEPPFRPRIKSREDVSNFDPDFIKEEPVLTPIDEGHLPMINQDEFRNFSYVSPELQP
protein kinase C beta-1, sequence (P05771 whole entry): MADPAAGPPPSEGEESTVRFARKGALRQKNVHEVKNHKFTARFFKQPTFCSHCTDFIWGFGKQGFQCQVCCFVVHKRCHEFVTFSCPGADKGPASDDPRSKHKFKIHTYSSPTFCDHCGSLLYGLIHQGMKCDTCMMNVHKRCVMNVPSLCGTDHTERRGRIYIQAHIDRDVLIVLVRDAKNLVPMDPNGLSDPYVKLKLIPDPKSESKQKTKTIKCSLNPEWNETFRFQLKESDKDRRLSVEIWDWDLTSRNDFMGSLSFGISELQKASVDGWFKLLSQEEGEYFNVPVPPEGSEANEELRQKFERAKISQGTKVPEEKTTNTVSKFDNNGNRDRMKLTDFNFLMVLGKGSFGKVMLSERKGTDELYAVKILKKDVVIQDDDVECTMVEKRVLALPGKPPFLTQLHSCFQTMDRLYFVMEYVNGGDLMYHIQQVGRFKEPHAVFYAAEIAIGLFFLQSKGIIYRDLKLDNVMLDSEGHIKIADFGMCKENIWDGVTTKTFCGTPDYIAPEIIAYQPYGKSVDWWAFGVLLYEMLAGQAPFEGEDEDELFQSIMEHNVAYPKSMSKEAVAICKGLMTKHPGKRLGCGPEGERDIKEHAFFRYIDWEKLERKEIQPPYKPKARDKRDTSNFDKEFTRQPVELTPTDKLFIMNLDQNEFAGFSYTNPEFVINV
protein kinase C beta-2, sequence (P05771 1-673 isoform P05771-2): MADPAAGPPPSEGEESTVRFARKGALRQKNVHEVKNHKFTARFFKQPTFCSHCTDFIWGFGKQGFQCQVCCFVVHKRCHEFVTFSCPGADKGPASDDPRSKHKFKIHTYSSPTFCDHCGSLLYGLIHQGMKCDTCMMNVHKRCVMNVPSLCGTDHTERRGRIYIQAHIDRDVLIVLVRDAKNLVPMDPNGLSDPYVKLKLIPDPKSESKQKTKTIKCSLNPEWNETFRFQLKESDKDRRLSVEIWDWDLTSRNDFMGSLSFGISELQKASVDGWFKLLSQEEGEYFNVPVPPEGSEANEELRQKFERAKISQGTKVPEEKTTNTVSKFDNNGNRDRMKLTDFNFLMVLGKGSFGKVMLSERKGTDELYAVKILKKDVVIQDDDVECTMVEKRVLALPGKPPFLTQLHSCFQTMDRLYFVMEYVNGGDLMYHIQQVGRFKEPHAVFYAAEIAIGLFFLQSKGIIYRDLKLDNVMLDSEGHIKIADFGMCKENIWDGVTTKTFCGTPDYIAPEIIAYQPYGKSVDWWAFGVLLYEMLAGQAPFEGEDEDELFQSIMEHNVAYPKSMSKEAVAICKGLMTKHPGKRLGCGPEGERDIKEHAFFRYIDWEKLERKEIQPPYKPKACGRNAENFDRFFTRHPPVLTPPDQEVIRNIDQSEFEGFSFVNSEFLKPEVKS
protein kinase C delta, sequence (Q05655 whole entry): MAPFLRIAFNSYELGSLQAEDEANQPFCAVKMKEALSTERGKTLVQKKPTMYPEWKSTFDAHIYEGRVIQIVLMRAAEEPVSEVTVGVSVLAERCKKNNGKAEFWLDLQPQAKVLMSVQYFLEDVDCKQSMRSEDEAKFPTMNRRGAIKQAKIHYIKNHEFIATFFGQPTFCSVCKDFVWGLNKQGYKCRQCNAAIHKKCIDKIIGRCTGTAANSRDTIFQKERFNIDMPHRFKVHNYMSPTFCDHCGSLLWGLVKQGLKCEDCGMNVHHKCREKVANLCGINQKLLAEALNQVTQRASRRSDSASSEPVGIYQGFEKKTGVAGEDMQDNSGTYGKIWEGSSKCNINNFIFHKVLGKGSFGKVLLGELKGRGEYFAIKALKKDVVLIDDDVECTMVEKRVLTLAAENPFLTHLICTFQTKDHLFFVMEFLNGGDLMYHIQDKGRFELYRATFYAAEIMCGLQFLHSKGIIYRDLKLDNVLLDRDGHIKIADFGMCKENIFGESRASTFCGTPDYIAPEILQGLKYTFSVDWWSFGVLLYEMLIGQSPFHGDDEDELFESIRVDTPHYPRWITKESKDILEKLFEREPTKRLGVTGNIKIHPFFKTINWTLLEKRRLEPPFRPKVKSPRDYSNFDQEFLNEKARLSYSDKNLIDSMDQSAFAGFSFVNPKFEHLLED

- IC50 (protein kinase C eta): 2.6 µM
SMILES: CC(C)(C)OC(=O)NCC(=O)n1cc(C2=C(c3cn(CCCN=[N+]=[N-])c4ccccc34)C(=O)NC2=O)c2ccccc21 [Example 1, 3-[1-(3-azidopropyl)-3-indolyl]-4-[(1-N-^t BOC )-glycine-3indolyl]-1H-pyrrol-2,5-dione]

- IC50 (protein kinase C beta-1): 1 µM
SMILES: CC(C)(C)OC(=O)N[C@@H](Cc1ccccc1)C(=O)n1cc(C2=C(c3cn(C(=O)[C@H](Cc4ccccc4)NC(=O)OC(C)(C)C)c4ccccc34)C(=O)NC2=O)c2ccccc21 [Example 3, 3,4-Bis[(1-N-^t BOC)-phenylalanine-3-indolyl]-1H-Pyrrol-2,5-dione]

- IC50 (protein kinase C delta): 2.9 µM
- IC50 (protein kinase C zeta): 45 µM
- IC50 (protein kinase C alpha): 2.3 µM
- IC50 (protein kinase C epsilon): 6.1 µM
- IC50 (protein kinase C beta-1): 0.15 µM
- IC50 (protein kinase C gamma): 2.6 µM
- IC50 (protein kinase C beta-2): 0.04 µM
- IC50 (protein kinase C eta): 0.37 µM
SMILES: CN(C)CCCn1cc(C2=C(c3cn(C(=O)CNC(=O)OC(C)(C)C)c4ccccc34)C(=O)NC2=O)c2ccccc21 [Example 2, 3-[1-(3-N,N'-dimethylaminopropyl)-3-indolyl]-4-[(1-N-^t BOC)-glycine-3-indolyl]-1H-pyrrol-2,5-dione]

SMILES: CN(C)CCCn1cc(C2=C(c3c[nH]c4ccccc34)C(=O)NC2=O)c2ccccc21 [3-[1-(3-dimethylaminopropyl)-indol-3-yl]-4-(1H-indol-3-yl)-1H-pyrrole-2,5-dione]
- isozyme selectivity (PKC isozymes; Martiny-Baron, et al., J. Biol. Chem. 268:9194-9197 (1993)): slight selectivity for isozymes, alpha and beta versus delta, epsilon, and zeta; also recorded: no differences in the selectivity between alpha and beta-1 isozymes
- isozyme selectivity (PKC isozymes; Toullec et al., J. Biol. Chem. 266:15771-15781 (1991)): slight selectivity for the calcium dependent isozymes; also recorded: no isozyme selectivity between alpha, beta-1, beta-2, and gamma
